Assay results published in PMC9775322, “An Integrated Analysis of Mechanistic Insights into Biomolecular Interactions and Molecular Dynamics of Bio-Inspired Cu(II) and Zn(II) Complexes towards DNA/BSA/SARS-CoV-2 3CL^pro by Molecular Docking-Based Virtual Screening and FRET Detection” (Biomolecules, 2022).
“And” between values parts separate entries of the source, which are not always exact repeats. Equal entries are not always repeated.

Legend:
CT-DNA = experiment: DNA binding affinity by viscometric (hydrodynamic) titration; parameters: species or system calf; details: for Relative Specific Viscosity (η/η0)^1/3: DNA 100 µM; for Slope of (η/η0)^1/3 vs [Compound]/[DNA]: linear plot, R 0.2–1.0
Procedure: The hydrodynamic titrations were carried out for all substances along with ethidium bromide (control) at 20, 40, 60, 80, 100 µM concentrations. In the Ostwald viscometer, these substances were also separately treated with the deoxyribonucleic acid solution (100 µM).
2.2.4. Viscometry-based titration for investigation of DNA binding
The Viscometry-based titration measurements were further supportive and delivered data about the binding modes between test compound and DNA base pairs. Nevertheless, it does not deliver definite confirmation for the exact mode of interactions. The experiment performed for all test compounds and ethidium bromide (control) at various concentrations 20, 40, 60, 80, 100 µM and each compound mixed with the CT-DNA solution (100 µM) in the Ostwald viscometer. With an accuracy of 0.01 seconds, a digital stopwatch was used to measure the average flow time. Due to the enhancement of the DNA's overall contour length during the separation of base pairs at intercalation sites, the classical intercalative mode […]
Generally, the compounds may result in less positive/negative or no viscosity change if they bind with DNA base pairs via […]
major or minor grooves [ 26]. […]
compounds via intercalation.

EB–DNA = experiment: Ethidium bromide displacement assay by fluorescence spectral titration; type: binding, calf; details: for LWB Method KLB (Lineweaver-Burk binding constant) / Scatchard Analysis KSA (Scatchard association binding constant) / Scatchard Analysis n (number of binding sites) / n (number of binding sites), DNA binding, Stern–Volmer Method–II / KSV (Stern-Volmer binding constant), DNA binding, Method–I / Kass (association binding constant), DNA binding, Stern–Volmer Method–II: EB–DNA; for LWB Method KLB (Lineweaver-Burk binding constant) / Scatchard Analysis KSA (Scatchard association binding constant) / Scatchard Analysis n (number of binding sites) / n (number of binding sites), DNA binding, Stern–Volmer Method–II / Kq (bimolecular quenching rate constant), DNA binding, Stern–Volmer Method–I: pH 7.4; for KSV (Stern-Volmer binding constant), DNA binding, Method–I / Kass (association binding constant), DNA binding, Stern–Volmer Method–II: pH 7.4, 610 nm; for Kq (bimolecular quenching rate constant), DNA binding, Stern–Volmer Method–I: Kq=KSV/τ0, τ0 = 10^−8 S, 610 nm; for P (ratio of fluorescence quantum efficiency of DNA bound and free complex): intercept of F/F0 vs 1/[DNA]; for ΔGb°, DNA binding, Stern–Volmer Method–II: −RT ln Kass, T = 298 K
Procedure: The DNA/BSA binding properties were acquired from the emission spectral titration with the supporting of the JASCO FP-6300 spectrofluorometer between the 200 and 800 nm regions. It is additional evidence for the complexes’ manner of DNA binding. While DNA (200 µM) was present or absent, we vigilantly monitored the intensity variations between 610 nm and 510 nm during the initial emission and excitation of EB [27]. Correspondingly, the emission titrations for BSA interaction with different concentrations between 2.5 μM and 25 μM for all samples were conducted in a Tris-HCl buffer solution (pH: 7.4) between the regions of 300 nm and 400 nm.
2.2.5. DNA/BSA binding assay by fluorescence titration
The titration was executed by the JASCO FP-6300 spectrofluorometer in the range of 200 – […]
DNA. To assess the relative DNA binding abilities of the test compound to CT-DNA, ethidium bromide (EB) was utilized as a reference. In the experiment, EB solution (20 µM) in 50 mM Tris –HCl /1 mM NaCl buffer solution (pH=7.2) was incubated with the DNA […]
solution (240 µM) at saturated binding levels and stored in a dark place for two hours. The tested compounds (1 –240 µM) were titrated with pre-incubated EB-bound DNA.
Additionally, from 610 nm to 510 nm, in the absence and presence of DNA (240 µM), the intensity changes for initial emission and excitation of EB were cautiously observed. As a conjugate planar molecule, EB's acquired fluorescence intensity is extremely low, but it […]
concentration of the compounds (0-240 µM), the intensity of the EB-DNA system decreases owing to the quenching effect of DNA by the manner of static quenching. It further attributes the generation of ground state DNA – complex adduct owing the cationic metal complexes interacting with the negatively charged oxygen in phosphodiester of DNA and the contraction of DNA pushes a few EB molecules out of DNA base pairs [ 27].
Fcorr = Fobs × e[(Aex× dex) + (Aem× dem)]/ 2 = Fobs × e(Aex + Aem)/ 2 (S12) Fcorr and F obs are represented as the IFE-corrected emission and observed (uncorrected) emission intensities, respectively. d ex and d em are denoted as the cuvette path lengths in the […]
excitation and emission directions, respectively. Also, the alteration in absorbance (OD) at the excitation and fluorescence wavelengths, respectively, is sometimes referred to as A ex and […]
F = 1+KSV [Q] = 1+ Kq τ0 (S13)
Where [Q] is represented as the sample concentration (quencher), the emission intensities F 0 and F are those in the […] of the quencher, respectively.
F ) = log Kass + nlog [Q] (S14)
KEB[EB] = Kapp[compound] (S15)
∆F = (F 0–F), Equation (16) was utilized to examine the Lineweaver –Burk binding constant (KLB) from the linear regression plot of 1/(F0–F) vs 1/[Q]. […]
γ =(F0–F)/F0, CF is denoted as the concentration of sample alone, the linear regression plot of (γ/CF) vs γ was employed to support equation (17), which was used to determine the values of KSA and n, respectively.
2.2.6. FRET calculation by Förster’s theory
Calculating FRET (Fluorescence Resonance Energy Transfer) is a crucial approach in determining the critical distance (r) between donor (BSA) and acceptor (test compound) molecules, in which the binding affinity between the BSA-complex systems could be evalued according to Förster’s theory. The overlap of the emission spectrum of the donor (BSA) and the absorption spectrum of the acceptor (compound) describes that the acceptor (compound) group may get excited as a result of the excited donor's (BSA) energy being lost to the ground

Aspergillus niger = experiment: Agar disc diffusion antifungal test; details: for diameter of clear zone inhibition / Inhibition %: H; for diameter of clear zone inhibition: 20 µL of 100 µM on 6 mm disc, Control (DMSO) = 6 mm; for Inhibition %: (T–C)/T × 100
[1] = tested on: Chromo bacterium violaceum; experiment: Agar disc diffusion antibacterial test; details: for diameter of clear zone inhibition / Inhibition %: C, (-) Chromo bacterium violaceum; for diameter of clear zone inhibition: 20 µL of 100 µM on 6 mm disc, Control (DMSO) = 6 mm; for Inhibition %: (T–C)/T × 100
[2] = tested on: Salmonella enteric serovar typhi; experiment: Agar disc diffusion antibacterial test; type: cell-based; details: B; for Inhibition %: (T–C)/T × 100
[3] = 20 µL of 100 µM on 6 mm disc, Control (DMSO) = 6 mm
[4] = read-out: diameter of clear zone inhibition

Row | SMILES | Relative Specific Viscosity (η/η0)^1/3 (CT-DNA; R = [Complex]/[DNA] = 0.2) | Relative Specific Viscosity (η/η0)^1/3 (CT-DNA; R = [Complex]/[DNA] = 0.4) | Relative Specific Viscosity (η/η0)^1/3 (CT-DNA; R = [Complex]/[DNA] = 0.6) | Relative Specific Viscosity (η/η0)^1/3 (CT-DNA; R = [Complex]/[DNA] = 0.8) | Relative Specific Viscosity (η/η0)^1/3 (CT-DNA; R = [Complex]/[DNA] = 1.0) | Slope of (η/η0)^1/3 vs [Compound]/[DNA] (CT-DNA) | LWB Method KLB (Lineweaver-Burk binding constant) (EB–DNA) | Scatchard Analysis KSA (Scatchard association binding constant) (EB–DNA) | Scatchard Analysis n (number of binding sites) (EB–DNA) | n (number of binding sites), DNA binding, Stern–Volmer Method–II (EB–DNA) | KSV (Stern-Volmer binding constant), DNA binding, Method–I (EB–DNA) | Kass (association binding constant), DNA binding, Stern–Volmer Method–II (EB–DNA) | Kq (bimolecular quenching rate constant), DNA binding, Stern–Volmer Method–I (EB–DNA) | P (ratio of fluorescence quantum efficiency of DNA bound and free complex) (EB–DNA) | ΔGb°, DNA binding, Stern–Volmer Method–II (EB–DNA) | diameter of clear zone inhibition (Aspergillus niger) | Inhibition % (Aspergillus niger) | diameter of clear zone inhibition [1] | Inhibition % [1] | Inhibition % [2] | also measured
1 | [Cu+2].[O-]c1ccccc1N=Cc1ccc(N2CCOCC2)cc1.[O-]c1ccccc1N=Cc1ccc(N2CCOCC2)cc1.c1cnc2c(c1)ccc1cccnc12 [(1b), [Cu^II(L)2(phen)]] | 0.82 | 1.10 | 1.25 | 1.45 | 1.71 | 1.0805 | 21654 M⁻¹ | 33302 M⁻¹ | 1.008 | 1.088 | 40303 M⁻¹ | 31817 M⁻¹ | 4.0303e+12 M⁻¹ s⁻¹ | 0.128 | –26.942 kJM^−1 | 10 mm | 40% | 11 mm | 45% | 40% | diameter of clear zone inhibition [2, 3]: 10 mm
2 | [O-]c1ccccc1N=Cc1ccc(N2CCOCC2)cc1.[O-]c1ccccc1N=Cc1ccc(N2CCOCC2)cc1.[Zn+2].c1cnc2c(c1)ccc1cccnc12 [(2b), [Zn^II(L)2(phen)]] | 0.80 | 0.91 | 1.16 | 1.21 | 1.53 | 0.840 | 18218 M⁻¹ | 32941 M⁻¹ | 0.909 | 1.083 | 20669 M⁻¹ | 19688 M⁻¹ | 2.0669e+12 M⁻¹ s⁻¹ | 0.124 | –24.873 kJM^−1 | 11 mm | 45% | 11 mm | 45% | 40% | diameter of clear zone inhibition [2, 3]: 10 mm
3 | Oc1ccccc1N=Cc1ccc(N2CCOCC2)cc1 [(HL), 2-(4-morpholinobenzylideneamino)phenol] | 0.61 | 0.67 | 0.75 | 0.85 | 1.01 | 0.462 and 0.4616 | 6985 M⁻¹ | 23194 M⁻¹ | 1.096 | 0.976 | 11636 M⁻¹ | 9882 M⁻¹ | 1.1636e+12 M⁻¹ s⁻¹ | 0.090 | –22.790 kJM^−1 |  | 40% |  | 45% | 33% | zone of inhibition at 100 µM (Aspergillus niger; [4]): 10 mm; zone of inhibition at 100 µM [1, 4]: 11 mm; zone of inhibition at 100 µM ([2]; 20 µL of 100 µM on 6 mm disc, Control (DMSO) = 6 mm, read-out: diameter of clear zone inhibition): 9 mm
